{"source": "PubChem BioAssay AID2060509", "about": "(Molecular Pharmacology Branch, DTP, NCI, 2025)", "test_system": "485176-168-R4-J1-PDC spheroids with HUVEC/MSC, viability", "test": "Anticancer human tumor 485176-168-R4-J1-PDC patient-derived pancreatic adenocarcinoma cell line growth inhibition [GQUAD]", "conditions": "for pIC50: curve of first compound; for viability, T/C: stronger effect = lower value", "description": "DNA G-quadruplex Stabilizer Agents in Combinations in Complex Spheroids\nA high-throughput screen of multi-cell type tumor spheroids was designed to identify active combinations of DNA G-quadruplex stabilizer agents and targeted small molecules. Complex spheroids include a stromal component modeled by human endothelial cells (HUVEC) and fibroblasts modeled by human mesenchymal stem cells (MSCs). The concentration ranges selected for each drug and investigational agent were based upon clinically achievable concentrations if the clinical Cmax of the agent was known.\nCompounds. The drugs and investigational agents: pidnarulex (CX-5461; NSC782164), APTO-253 (NSC789042), BRACO-19 (NSC847499), peposertib (NSC802822), ceralasertib (NSC780249), elimusertib (NSC800525), camonsertib (NSC841442), AZD-1390 (NSC803789), olaparib (NSC753686), talazoparib (NSC767125), ART-558 (NSC835418), sotorasib (NSC818433), MRTX-1133 (NSC836407), SN-38 (NSC673596), topotecan (NSC609699), etoposide (NSC141540), doxorubicin (NSC123127), gemcitabine (NSC613327), 5-fluorouracil (NSC19893), paclitaxel (NSC125973), vemurafenib (NSC761431), panobinostat (NSC761190), R-306465 (JNJ-16241199; NSC773264), adavosertib (NSC754352), TP-3654 (NSC805149), carboplatin (NSC241240), KSQ-4279 (NSC840948), and staurosporine (NSC755774) were obtained from the National Cancer Institute (NCI) Developmental Therapeutics Program Chemical Repository (34). The FDA-approved anticancer drug set is available from the NCI Developmental Therapeutics Program. […] The stock solutions were prepared in dimethyl sulfoxide (DMSO, Sigma-Aldrich, St. Louis, MO, cat. D2650) at 800-fold the tested concentration and stored at -70 degrees C prior to their use. All drugs and investigational agents were tested over a range starting from a high concentration at or near the clinical Cmax and decreasing in half-log increments. If the clinical Cmax for an agent had not been determined, the highest concentration tested was 10 microM.\n2.3 Cell Culture. All cells were maintained in an incubator at 37 degrees C and 5% CO2 with 95% humidity. The PDC lines were cultured according to standard operating procedures established by the NCI PDMR. All PDCs were thawed and cultured in Matrigel-coated flasks prepared with a working solution of 1X Ham's F-12 nutrient mix, without supplementation (Invitrogen, cat. 11765054), 100 U/mL penicillin-streptomycin (Invitrogen, cat. 15140122), and 2.5% Matrigel (Corning Inc., cat. 354248) for the first three passages. The 857933-349-R-J2-PDC line was cultured in 6C/Colon 1B media, which includes advanced DMEM/F-12 (Thermo Fisher Scientific, cat. 12634028), 10 mM HEPES (Thermo Fisher Scientific, cat. 15630080), 1X GlutaMAX supplement (Thermo Fisher Scientific, cat. 35050061), 0.1 mg/mL primocin (InvivoGen, cat. ant-pm-2), 10% defined fetal bovine serum, heat inactivated (HyClone Laboratories Inc., cat. SH30070.03HI), 50% L-WRN conditioned media (ATCC, cat. CRL-3276), 1.25 mM N-Acetyl-L-cysteine (Sigma-Aldrich, cat. A9165), 10 mM nicotinamide (Sigma-Aldrich, cat. N0636), 1X B-27 supplement (Thermo Fisher Scientific, cat. 17504044), 1X N-2 supplement (Thermo Fisher Scientific, cat. 17502048), 10 microM Y-27632 dihydrochloride (Tocris Bioscience, cat. 1254), and 50 ng/mL human EGF recombinant protein (Thermo Fisher Scientific, cat. PHG0311). The 485176-168-R4-J1-PDC line was cultured in Panc media, which includes all 6C/Colon 1B media components plus 100 ng/mL human FGF-10 (Thermo Fisher Scientific, cat. 100-26), 500 nM SB-431542 (Selleckchem, cat. S1067), and gastrin (Tocris, cat. 3006).\n[…]", "note": "pIC50: −log10 of the molar value.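 Further: spheroids exposed to compounds for seven days before readout.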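 Wherever viability, T/C is given: percent viability relative to DMSO vehicle control wells as 100%.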", "data": [{"smiles": "C#Cc1c(F)ccc2cc(O)cc(-c3ncc4c(N5CC6CCC(C5)N6)nc(OCC56CCCN5CC(F)C6)nc4c3F)c12", "note": "(configuration not stated) + CN(C)c1ccc(Nc2c3ccc(NC(=O)CCN4CCCC4)cc3nc3cc(NC(=O)CCN4CCCC4)ccc23)cc1", "values": [{"measurement": "pIC50", "setting": "second compound 0.0316 µM", "value": "< 5.00"}, {"measurement": "pIC50", "setting": "second compound 0.1 µM", "value": "< 5.00"}, {"measurement": "pIC50", "setting": "second compound 0.316 µM", "value": "< 5.00"}, {"measurement": "pIC50", "setting": "second compound 1 µM", "value": "< 5.00"}, {"measurement": "pIC50", "setting": "second compound 3.16 µM", "value": "< 5.00"}, {"measurement": "pIC50", "setting": "second compound 10 µM", "value": "< 5.00"}, {"measurement": "viability, T/C", "setting": "second compound 0.0316 µM, first compound 0.0316 µM", "value": 119, "unit": "%"}, {"measurement": "viability, T/C", "setting": "second compound 0.0316 µM, first compound 0.1 µM", "value": 106, "unit": "%"}, {"measurement": "viability, T/C", "setting": "second compound 0.0316 µM, first compound 0.316 µM", "value": 103, "unit": "%"}, {"measurement": "viability, T/C", "setting": "second compound 0.0316 µM, first compound 1 µM", "value": 106, "unit": "%"}, {"measurement": "viability, T/C", "setting": "second compound 0.0316 µM, first compound 3.16 µM", "value": 95.6, "unit": "%"}, {"measurement": "viability, T/C", "setting": "second compound 0.0316 µM, first compound 10 µM", "value": 98.2, "unit": "%"}, {"measurement": "viability, T/C", "setting": "second compound 0.1 µM, first compound 0.0316 µM", "value": 112, "unit": "%"}, {"measurement": "viability, T/C", "setting": "second compound 0.1 µM, first compound 0.1 µM", "value": 99.5, "unit": "%"}, {"measurement": "viability, T/C", "setting": "second compound 0.1 µM, first compound 0.316 µM", "value": 91.9, "unit": "%"}, {"measurement": "viability, T/C", "setting": "second compound 0.1 µM, first compound 1 µM", "value": 97.9, "unit": "%"}, {"measurement": "viability, T/C", "setting": "second compound 0.1 µM, first compound 3.16 µM", "value": 120, "unit": "%"}, {"measurement": "viability, T/C", "setting": "second compound 0.1 µM, first compound 10 µM", "value": 116, "unit": "%"}, {"measurement": "viability, T/C", "setting": "second compound 0.316 µM, first compound 0.0316 µM", "value": 97.4, "unit": "%"}, {"measurement": "viability, T/C", "setting": "second compound 0.316 µM, first compound 0.1 µM", "value": 81.8, "unit": "%"}, {"measurement": "viability, T/C", "setting": "second compound 0.316 µM, first compound 0.316 µM", "value": 105, "unit": "%"}, {"measurement": "viability, T/C", "setting": "second compound 0.316 µM, first compound 1 µM", "value": 102, "unit": "%"}, {"measurement": "viability, T/C", "setting": "second compound 0.316 µM, first compound 3.16 µM", "value": 95.5, "unit": "%"}, {"measurement": "viability, T/C", "setting": "second compound 0.316 µM, first compound 10 µM", "value": 85.5, "unit": "%"}, {"measurement": "viability, T/C", "setting": "second compound 1 µM, first compound 0.0316 µM", "value": 91.6, "unit": "%"}, {"measurement": "viability, T/C", "setting": "second compound 1 µM, first compound 0.1 µM", "value": 90.8, "unit": "%"}, {"measurement": "viability, T/C", "setting": "second compound 1 µM, first compound 0.316 µM", "value": 99.3, "unit": "%"}, {"measurement": "viability, T/C", "setting": "second compound 1 µM, first compound 1 µM", "value": 111, "unit": "%"}, {"measurement": "viability, T/C", "setting": "second compound 1 µM, first compound 3.16 µM", "value": 94.6, "unit": "%"}, {"measurement": "viability, T/C", "setting": "second compound 1 µM, first compound 10 µM", "value": 94.3, "unit": "%"}, {"measurement": "viability, T/C", "setting": "second compound 3.16 µM, first compound 0.0316 µM", "value": 113, "unit": "%"}, {"measurement": "viability, T/C", "setting": "second compound 3.16 µM, first compound 0.1 µM", "value": 96.2, "unit": "%"}, {"measurement": "viability, T/C", "setting": "second compound 3.16 µM, first compound 0.316 µM", "value": 103, "unit": "%"}, {"measurement": "viability, T/C", "setting": "second compound 3.16 µM, first compound 1 µM", "value": 94.4, "unit": "%"}, {"measurement": "viability, T/C", "setting": "second compound 3.16 µM, first compound 3.16 µM", "value": 99.4, "unit": "%"}, {"measurement": "viability, T/C", "setting": "second compound 3.16 µM, first compound 10 µM", "value": 78.2, "unit": "%"}, {"measurement": "viability, T/C", "setting": "second compound 10 µM, first compound 0.0316 µM", "value": 89.8, "unit": "%"}, {"measurement": "viability, T/C", "setting": "second compound 10 µM, first compound 0.1 µM", "value": 104, "unit": "%"}, {"measurement": "viability, T/C", "setting": "second compound 10 µM, first compound 0.316 µM", "value": 82.5, "unit": "%"}, {"measurement": "viability, T/C", "setting": "second compound 10 µM, first compound 1 µM", "value": 91.9, "unit": "%"}, {"measurement": "viability, T/C", "setting": "second compound 10 µM, first compound 3.16 µM", "value": 70.8, "unit": "%"}, {"measurement": "viability, T/C", "setting": "second compound 10 µM, first compound 10 µM", "value": 54.3, "unit": "%"}]}]}
